Measurements taken from patent US20230150974A1 (Foghorn Therapeutics Inc., priority 2020, published 2023).

Columns and labels:
HiBit-BRG1 = target: T1, HiBit-BRG1 (Homo sapiens, UniProt P51532); assay: HiBit-BRG1 cell-based degradation assay (Nano-Glo HiBiT Lytic Detection); conditions: HeLa cells expressing HiBit-BRG1 and LgBit, 24 h; for DC50: read-out: BRG1 HiBit Degradation IC50; for Dmax: read-out: BRG1 HiBit Degradation Maximum (%)
T1 construct: expressed in transfected cells
Procedure, shortened: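 HeLa cells stably expressing HiBit-BRG1 plus LgBit; compound exposure 24 h; Nano-Glo HiBiT lytic luminescence; % degradation vs DMSO (0%) and 2 μM standard BRM/BRG1 degrader (100%).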

HiBiT-BRM = target: T2, HiBiT-BRM (Homo sapiens, UniProt P51531); assay: HiBiT-BRM cell-based degradation assay (Nano-Glo HiBiT Lytic Detection); conditions: HeLa cells expressing HiBiT-BRM, 24 h; for DC50: read-out: BRM HiBit Degradation IC50
T2 construct: expressed in transfected cells
T2 sequence (P51531 whole entry): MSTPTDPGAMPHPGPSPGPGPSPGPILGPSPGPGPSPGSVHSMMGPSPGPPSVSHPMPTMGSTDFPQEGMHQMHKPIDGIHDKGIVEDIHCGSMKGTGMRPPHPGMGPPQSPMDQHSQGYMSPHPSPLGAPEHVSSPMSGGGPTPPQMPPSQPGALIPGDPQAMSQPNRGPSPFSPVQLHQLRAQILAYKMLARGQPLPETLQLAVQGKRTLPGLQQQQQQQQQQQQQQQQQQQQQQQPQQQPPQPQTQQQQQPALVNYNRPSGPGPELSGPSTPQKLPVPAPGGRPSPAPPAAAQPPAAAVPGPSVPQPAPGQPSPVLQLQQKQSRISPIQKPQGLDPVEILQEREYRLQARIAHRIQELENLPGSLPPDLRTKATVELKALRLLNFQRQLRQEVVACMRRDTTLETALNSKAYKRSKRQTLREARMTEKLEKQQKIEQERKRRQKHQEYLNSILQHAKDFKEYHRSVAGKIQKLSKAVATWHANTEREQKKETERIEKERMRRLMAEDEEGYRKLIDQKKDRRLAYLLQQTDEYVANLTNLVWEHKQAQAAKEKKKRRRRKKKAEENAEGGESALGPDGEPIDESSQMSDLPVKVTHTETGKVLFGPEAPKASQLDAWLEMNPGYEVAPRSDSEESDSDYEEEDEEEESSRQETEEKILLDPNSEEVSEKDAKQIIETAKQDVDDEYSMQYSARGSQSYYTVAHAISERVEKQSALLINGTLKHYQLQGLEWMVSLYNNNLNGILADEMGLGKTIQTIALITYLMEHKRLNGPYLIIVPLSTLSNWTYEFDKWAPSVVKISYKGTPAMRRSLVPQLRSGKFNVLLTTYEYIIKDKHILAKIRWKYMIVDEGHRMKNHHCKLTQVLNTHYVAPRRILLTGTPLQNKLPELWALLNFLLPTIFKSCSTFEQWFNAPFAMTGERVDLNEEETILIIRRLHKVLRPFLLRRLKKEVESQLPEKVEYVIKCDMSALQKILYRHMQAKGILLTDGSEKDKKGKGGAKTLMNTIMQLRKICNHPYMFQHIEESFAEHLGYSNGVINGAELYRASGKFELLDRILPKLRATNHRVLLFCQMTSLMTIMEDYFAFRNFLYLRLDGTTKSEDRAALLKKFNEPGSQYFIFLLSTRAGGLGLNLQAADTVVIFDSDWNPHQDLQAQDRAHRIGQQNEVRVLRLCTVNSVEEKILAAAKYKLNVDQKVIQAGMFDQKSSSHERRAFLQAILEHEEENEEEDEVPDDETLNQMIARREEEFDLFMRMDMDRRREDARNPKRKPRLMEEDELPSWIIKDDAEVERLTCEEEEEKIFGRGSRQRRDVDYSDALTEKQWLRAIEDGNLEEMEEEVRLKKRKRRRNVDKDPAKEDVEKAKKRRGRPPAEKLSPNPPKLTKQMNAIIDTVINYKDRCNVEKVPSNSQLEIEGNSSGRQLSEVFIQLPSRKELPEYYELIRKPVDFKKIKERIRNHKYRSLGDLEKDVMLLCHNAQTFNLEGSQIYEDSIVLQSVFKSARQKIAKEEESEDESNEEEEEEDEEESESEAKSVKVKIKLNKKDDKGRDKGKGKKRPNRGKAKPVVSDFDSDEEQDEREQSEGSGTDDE
Procedure, shortened: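 HeLa cells stably expressing HiBiT-tagged BRM were treated for 24 h, then lysed with LgBiT-containing Nano-Glo reagent and luminescence read. % degradation scaled between DMSO (high control) and 2 μM reference BRM/BRG1 degrader (low control).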

T1 sequence (P51532 whole entry): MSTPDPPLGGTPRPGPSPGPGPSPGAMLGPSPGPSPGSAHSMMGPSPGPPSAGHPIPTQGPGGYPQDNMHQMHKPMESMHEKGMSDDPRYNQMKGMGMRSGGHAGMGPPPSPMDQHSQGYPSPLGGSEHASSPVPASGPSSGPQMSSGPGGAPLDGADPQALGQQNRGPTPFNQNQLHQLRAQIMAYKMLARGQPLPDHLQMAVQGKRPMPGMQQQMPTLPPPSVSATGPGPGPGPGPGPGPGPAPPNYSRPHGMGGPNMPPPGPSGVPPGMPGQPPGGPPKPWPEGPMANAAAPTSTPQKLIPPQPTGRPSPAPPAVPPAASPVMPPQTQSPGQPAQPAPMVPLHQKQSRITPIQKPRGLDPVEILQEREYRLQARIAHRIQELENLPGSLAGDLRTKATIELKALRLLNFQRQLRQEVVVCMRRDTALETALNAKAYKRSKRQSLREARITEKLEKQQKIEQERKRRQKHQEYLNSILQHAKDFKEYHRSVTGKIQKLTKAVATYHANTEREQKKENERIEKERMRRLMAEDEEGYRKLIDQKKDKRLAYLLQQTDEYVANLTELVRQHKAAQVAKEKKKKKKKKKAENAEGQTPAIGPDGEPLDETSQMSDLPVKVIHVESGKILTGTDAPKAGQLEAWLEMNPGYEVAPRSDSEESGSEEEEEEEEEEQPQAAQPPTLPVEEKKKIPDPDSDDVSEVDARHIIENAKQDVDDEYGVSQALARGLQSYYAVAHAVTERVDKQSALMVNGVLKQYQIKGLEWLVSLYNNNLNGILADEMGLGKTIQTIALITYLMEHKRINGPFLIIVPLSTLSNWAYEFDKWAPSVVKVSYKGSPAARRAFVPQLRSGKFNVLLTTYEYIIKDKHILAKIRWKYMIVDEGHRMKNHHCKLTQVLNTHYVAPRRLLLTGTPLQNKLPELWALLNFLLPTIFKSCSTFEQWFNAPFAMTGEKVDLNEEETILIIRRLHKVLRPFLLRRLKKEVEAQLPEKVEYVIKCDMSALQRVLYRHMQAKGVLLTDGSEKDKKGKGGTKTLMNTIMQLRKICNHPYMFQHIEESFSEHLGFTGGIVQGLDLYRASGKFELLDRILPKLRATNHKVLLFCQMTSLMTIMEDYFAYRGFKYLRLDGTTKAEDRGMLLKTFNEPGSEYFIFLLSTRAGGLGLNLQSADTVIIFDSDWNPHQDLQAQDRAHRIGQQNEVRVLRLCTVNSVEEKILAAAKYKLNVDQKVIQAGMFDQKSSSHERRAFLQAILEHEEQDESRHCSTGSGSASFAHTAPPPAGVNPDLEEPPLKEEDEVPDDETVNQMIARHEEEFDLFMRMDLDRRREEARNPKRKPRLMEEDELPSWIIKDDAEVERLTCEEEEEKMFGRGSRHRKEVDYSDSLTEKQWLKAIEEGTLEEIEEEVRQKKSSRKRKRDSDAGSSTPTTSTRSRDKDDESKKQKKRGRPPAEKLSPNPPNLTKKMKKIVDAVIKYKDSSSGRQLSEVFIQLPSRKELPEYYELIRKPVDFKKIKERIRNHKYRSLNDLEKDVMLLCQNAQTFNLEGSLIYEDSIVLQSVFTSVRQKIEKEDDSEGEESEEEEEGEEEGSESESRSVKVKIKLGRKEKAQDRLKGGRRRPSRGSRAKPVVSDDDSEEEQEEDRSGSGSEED

DC50 (HiBit-BRG1) [nM] | Dmax (HiBit-BRG1) [%] | DC50 (HiBiT-BRM) [nM] | Compound | BRM HiBit Degradation Maximum (%) (HiBiT-BRM)
> 1000 | > 50 | > 100 | Cc1ncsc1-c1ccc([C@H](C)NC(=O)[C@@H]2C[C@@H](O)CN2C(=O)[C@@H](NC(=O)CN2CCC(OC3CCN(CCC(=O)NCc4ccc(CCOc5cc(-c6ccccc6O)nnc5N)cc4)CC3)CC2)C(C)(C)C)cc1 [Compound 258, (2S,4R)-1-((S)-2-(2-(4-((1-(3-((4-(2-((3-amino-6-(2-hydroxyphenyl)pyridazin-4-yl)oxy)ethyl)benzyl)amino)-3-oxopropyl)piperidin-4-yl)oxy)piperidin-1-yl)acetamido)-3,3-dimethylbutanoyl)-4-hydroxy-N-((S)-1-(4-(4-methylthiazol-5-yl)phenyl)ethyl)pyrrolidine-2-carboxamide] | A (“A” indicates maximum degradation ≥75%)
> 1000 | < 50 | > 1000 | Cc1ncsc1-c1ccc([C@H](C)NC(=O)[C@@H]2C[C@@H](O)CN2C(=O)[C@@H](NC(=O)CCN2C[C@H]3CN(CCC(=O)NCc4ccc(CCOc5cc(-c6ccccc6O)nnc5N)cc4)C[C@H]3C2)C(C)(C)C)cc1 [Compound 259, (2S,4R)-1-((2S)-2-(3-(5-(3-((4-(2-((3-amino-6-(2-hydroxyphenyl)pyridazin-4-yl)oxy)ethyl)benzyl)amino)-3-oxopropyl)hexahydropyrrolo[3,4-c]pyrrol-2(1H)-yl)propanamido)-3,3-dimethylbutanoyl)-4-hydroxy-N-((S)-1-(4-(4-methylthiazol-5-yl)phenyl)ethyl)pyrrolidine-2-carboxamide] | C (“C” indicates maximum degradation <50%)
> 1000 | < 50 | > 1000 | Cc1ncsc1-c1ccc(CNC(=O)[C@@H]2C[C@@H](O)CN2C(=O)[C@@H](NC(=O)CCCCN2CCN(CCC(=O)NCc3ccc(CCOc4cc(-c5ccccc5O)nnc4N)cc3)CC2)C(C)(C)C)cc1 [Compound 260, (2S,4R)-1-((S)-2-(5-(4-(3-((4-(2-((3-amino-6-(2-hydroxyphenyl)pyridazin-4-yl)oxy)ethyl)benzyl)amino)-3-oxopropyl)piperazin-1-yl)pentanamido)-3,3-dimethylbutanoyl)-4-hydroxy-N-(4-(4-methylthiazol-5-yl)benzyl)pyrrolidine-2-carboxamide] | C (“C” indicates maximum degradation <50%)
> 1000 | > 50 | > 10 | Cc1ncsc1-c1ccc([C@H](C)NC(=O)[C@@H]2C[C@@H](O)CN2C(=O)[C@@H](NC(=O)CCCCCCCCCCCCCCNCc2ccc(CCOc3cc(-c4ccccc4O)nnc3N)cc2)C(C)(C)C)cc1 [Compound 261, (2S,4R)-1-((S)-2-(15-((4-(2-((3-amino-6-(2-hydroxyphenyl)pyridazin-4-yl)oxy)ethyl)benzyl)amino)pentadecanamido)-3,3-dimethylbutanoyl)-4-hydroxy-N-((S)-1-(4-(4-methylthiazol-5-yl)phenyl)ethyl)pyrrolidine-2-carboxamide] | A (“A” indicates maximum degradation ≥75%)
> 1000 | < 50 | > 1000 | Cc1ncsc1-c1ccc([C@H](C)NC(=O)[C@@H]2C[C@@H](O)CN2C(=O)[C@@H](NC(=O)CCCCN2CCN(CCC(=O)NCc3ccc(CCOc4cc(-c5ccccc5O)nnc4N)cc3)CC2)C(C)(C)C)cc1 [Compound 262, (2S,4R)-1-((S)-2-(5-(4-(3-((4-(2-((3-amino-6-(2-hydroxyphenyl)pyridazin-4-yl)oxy)ethyl)benzyl)amino)-3-oxopropyl)piperazin-1-yl)pentanamido)-3,3-dimethylbutanoyl)-4-hydroxy-N-((S)-1-(4-(4-methylthiazol-5-yl)phenyl)ethyl)pyrrolidine-2-carboxamide] | B (“B” indicates maximum degradation ≥50%)
> 1000 | < 50 | > 10 | Cc1ncsc1-c1ccc([C@H](C)NC(=O)[C@@H]2C[C@@H](O)CN2C(=O)[C@@H](NC(=O)CCCCCCCCCCN2CCN(Cc3ccc(CCOc4cc(-c5ccccc5O)nnc4N)cc3)CC2)C(C)(C)C)cc1 [Compound 263] | A (“A” indicates maximum degradation ≥75%)
> 100 | > 50 | > 10 | Cc1ncsc1-c1ccc([C@H](C)NC(=O)[C@@H]2C[C@@H](O)CN2C(=O)[C@@H](NC(=O)CCCCCCCCCCN2C[C@@H]3CN(Cc4ccc(CCOc5cc(-c6ccccc6O)nnc5N)cc4)C[C@@H]3C2)C(C)(C)C)cc1 [Compound 264, (2S,4R)-1-((2S)-2-(11-(5-(4-(2-((3-amino-6-(2-hydroxyphenyl)pyridazin-4-yl)oxy)ethyl)benzyl)hexahydropyrrolo[3,4-c]pyrrol-2(1H)-yl)undecanamido)-3,3-dimethylbutanoyl)-4-hydroxy-N-((S)-1-(4-(4-methylthiazol-5-yl)phenyl)ethyl)pyrrolidine-2-carboxamide] | A (“A” indicates maximum degradation ≥75%)
> 1000 | < 50 | > 1000 | Cc1ncsc1-c1ccc([C@H](C)NC(=O)[C@@H]2C[C@@H](O)CN2C(=O)[C@@H](NC(=O)CCN2CCN(CCCCC(=O)NCc3ccc(CCOc4cc(-c5ccccc5O)nnc4N)cc3)CC2)C(C)(C)C)cc1 [Compound 265, (2S,4R)-1-((S)-2-(3-(4-(5-((4-(2-((3-amino-6-(2-hydroxyphenyl)pyridazin-4-yl)oxy)ethyl)benzyl)amino)-5-oxopentyl)piperazin-1-yl)propanamido)-3,3-dimethylbutanoyl)-4-hydroxy-N-((S)-1-(4-(4-methylthiazol-5-yl)phenyl)ethyl)pyrrolidine-2-carboxamide] | B (“B” indicates maximum degradation ≥50%)
> 1000 | < 50 | > 1000 | Cc1ncsc1-c1ccc(CNC(=O)[C@@H]2C[C@@H](O)CN2C(=O)[C@@H](NC(=O)CN2CCC3(CCN(CCC(=O)NCc4ccc(CCOc5cc(-c6ccccc6O)nnc5N)cc4)CC3)CC2)C(C)(C)C)cc1 [Compound 266, (2S,4R)-1-((S)-2-(2-(9-(3-((4-(2-((3-amino-6-(2-hydroxyphenyl)pyridazin-4-yl)oxy)ethyl)benzyl)amino)-3-oxopropyl)-3,9-diazaspiro[5.5]undecan-3-yl)acetamido)-3,3-dimethylbutanoyl)-4-hydroxy-N-(4-(4-methylthiazol-5-yl)benzyl)pyrrolidine-2-carboxamide] | A (“A” indicates maximum degradation ≥75%)
> 1000 | < 50 | > 1000 | Cc1ncsc1-c1ccc([C@H](C)NC(=O)[C@@H]2C[C@@H](O)CN2C(=O)[C@@H](NC(=O)CN2CCC3(CCN(CCC(=O)NCc4ccc(CCOc5cc(-c6ccccc6O)nnc5N)cc4)CC3)CC2)C(C)(C)C)cc1 [Compound 267, (2S,4R)-1-((S)-2-(2-(9-(3-((4-(2-((3-amino-6-(2-hydroxyphenyl)pyridazin-4-yl)oxy)ethyl)benzyl)amino)-3-oxopropyl)-3,9-diazaspiro[5.5]undecan-3-yl)acetamido)-3,3-dimethylbutanoyl)-4-hydroxy-N-((S)-1-(4-(4-methylthiazol-5-yl)phenyl)ethyl)pyrrolidine-2-carboxamide] | A (“A” indicates maximum degradation ≥75%)
